Results: the NIST ThermoML archive (doi:10.1021/je8003782)
“And” between values parts separate entries of the source, which are not always exact repeats. Equal values may be shown once.

What was measured:
[1] = xn = mol fraction of the nth substance listed; conditions: 101 kPa, Liquid
[2] = 101.3 kPa, Liquid

CC(=O)O [acetic acid] + CC(=O)OC(C)=O
[1], x1 = 1
Conditions	mass density [kg/m3]	viscosity [mPa·s]
293.15 K	1049.42	1.204
298.15 K	1043.76	1.114
303.15 K	1038.1	1.037
308.15 K	1032.44	0.964
313.15 K	1026.77	0.902
318.15 K	1021.11	0.841
323.15 K	1015.44	0.787
328.15 K	1009.77	0.741
333.15 K	1004.09	0.697
338.15 K	998.38	0.657

CC(=O)O [acetic acid] + C1N2CN3CN1CN(C2)C3
[1], x2 = 0
Conditions	mass density [kg/m3]	viscosity [mPa·s]
293.15 K	1049.42	1.204
298.15 K	1043.76	1.114
303.15 K	1038.1	1.037
308.15 K	1032.44	0.964
313.15 K	1026.77	0.902
318.15 K	1021.11	0.841
323.15 K	1015.44	0.787
328.15 K	1009.77	0.741
333.15 K	1004.09	0.697

CC(=O)OC(C)=O [ethanoic anhydride]
[2]
Conditions	mass density [kg/m3]	viscosity [mPa·s]
293.15 K	1080.89	0.888
298.15 K	1074.8	0.829
303.15 K	1068.7	0.778
308.15 K	1062.61	0.729
313.15 K	1056.49	0.688
318.15 K	1050.38	0.648
323.15 K	1044.24	0.61
328.15 K	1038.07	0.58
333.15 K	1031.9	0.548
338.15 K	1025.7	0.521

CC(=O)O [acetic acid]
[2]
Conditions	mass density	viscosity
293.15 K	1049.42 kg/m3 and 1049.42 kg/m3	1.204 mPa·s and 1.204 mPa·s
298.15 K	1043.76 kg/m3 and 1043.76 kg/m3	1.114 mPa·s and 1.114 mPa·s
303.15 K	1038.1 kg/m3 and 1038.1 kg/m3	1.037 mPa·s and 1.037 mPa·s
308.15 K	1032.44 kg/m3 and 1032.44 kg/m3	0.964 mPa·s and 0.964 mPa·s
313.15 K	1026.77 kg/m3 and 1026.77 kg/m3	0.902 mPa·s and 0.902 mPa·s
318.15 K	1021.11 kg/m3 and 1021.11 kg/m3	0.841 mPa·s and 0.841 mPa·s
323.15 K	1015.44 kg/m3 and 1015.44 kg/m3	0.787 mPa·s and 0.787 mPa·s
328.15 K	1009.77 kg/m3 and 1009.77 kg/m3	0.741 mPa·s and 0.741 mPa·s
333.15 K	1004.09 kg/m3 and 1004.09 kg/m3	0.697 mPa·s and 0.697 mPa·s
338.15 K	998.38 kg/m3	0.657 mPa·s
